{
  "source": "patent US5013724A",
  "about": "“Process for the sulfation of glycosaminoglycans, the sulfated glycosaminoglycans and their biological applications” (Sanofi Societe Anonyme, priority 1986, dated 1991)",
  "key": {"[1]": {"tested_on": "plasma", "experiment": "additional experiments in plasma on cofactor dependence"}, "[2]": {"tested_on": "factor IIa (thrombin)", "experiment": "inhibitory activity towards factor IIa (thrombin) in the presence of HC II", "assay_type": "biochemical", "conditions": "Experiment 1", "protocol": "(§1) (b) inhibitory activity towards the activated factor II (factor IIa) or thrombin.\n(§2) The results are expressed in μg of product per ml.\n(§3) In this model system, the inhibition of factor IIa is determined by measuring the IC 50 of the test substances in the presence of AT-III and HC II."}, "[3]": {"tested_on": "thrombus formation", "experiment": "anti-thrombotic activity in vivo in the rabbit, Wessler model (human thromboplastin as thrombogenic agent)", "conditions": "dose of 100 μg/kg", "protocol": "(d) anti-thrombotic activity in vivo in the rabbit, according to the model of Wessler (such as that described by Wessler, S., Reimer, S. M. and Sheps, M. C., in J. Appl. Physiol. 14 (6), 943-946, 1959).\nThe test substance is injected into the carotid artery, at doses varying from 10 to 500 μg/kg, 3 mn before the administration of the thrombogenic agent (human thromboplastin).\nThe result is expressed as percentage of inhibition of thrombus formation."}, "[4]": {"tested_on": "blood coagulation", "experiment": "coagulation time by the APTT method", "assay_type": "biochemical", "conditions": "Experiment 1", "protocol": "(c) measurement of the coagulation time by the APTT method (as described in Caen, J., Larrieu, M. J., and Samama, in Hemostase, paris, Expansion Scientifique Francaise, 1968, pp 133-135).\nIn the present instance, the concentration of the product to be tested necessary for a doubling of the coagulation time is determined.\nThe result is expressed in μg of substance tested per ml."}, "[5]": {"tested_on": "factor IIa (thrombin)", "experiment": "inhibitory activity towards factor IIa (thrombin) in the presence of AT-III", "assay_type": "biochemical", "conditions": "Experiment 1", "protocol": "as §1, §2, §3"}},
  "data": [
    {"substance": "Dermatan sulfate", "values": [
      {"measurement": "cofactor dependence of the action in plasma", "setting": "[1]", "value": "totally dependent on HC 11"},
      {"measurement": "Anti-IIa activity, HC II, IC 50", "setting": "[2]", "value": 5.8, "unit": "µg/mL"},
      {"measurement": "prevention of thrombus formation", "setting": "[3]", "value": "~40", "unit": "%"},
      {"measurement": "activity in the APTT model (in words)", "setting": "[4]", "value": "sursulfation increases the activity"},
      {"measurement": "Concentration necessary to double the coagulation time", "setting": "[4]; APTT method", "value": 50, "unit": "µg/mL"},
      {"measurement": "Anti-IIa activity, AT-III, IC 50", "setting": "[5]", "value": 100, "unit": "µg/mL"}
    ]}
  ]
}
